Patent publication US20230357099A1, “PYRAZOLO [3,4-B] PYRIDINE-4-CARBOXAMIDE NITRIFICATION INHIBITOR” (EUROCHEM ANTWERPTEN, priority 2020, published 2023)

Key:
[1] = tested on: Nitrososphaera viennensis; assay: Nitrification inhibition assay on Nitrososphaera viennensis (nitrite, Griess); format: cell-based, Nitrososphaera viennensis EN76T; details: Nitrososphaera viennensis; 2.5 µM compound; structural variants outside formula (I); read-out: Relative nitrification (%) by Nitrososphaera viennensis treated with 2.5 µM compound
Protocol: Nitrite (NO2—) was measured using the Griess reagent (Product number: G4410, Griess reagent (modified), Sigma-Aldrich). Equal volumes of the sample or a diluted sample and the Griess reagent were mixed a transparent flat bottom multi-well plate and incubated in the dark at room temperature for 10 minutes. Absorbance values at 540 nm were measured spectrophotometrically (EnVision, Perkin Elmer®) and used to calculate the [NO2—] by use of a standard curve.
A liquid culture sample of Nitrososphaera viennensis EN76T was kindly supplied by prof. dr. Christa Schleper (University of Vienna). Cells were grown in fresh water medium (FWM) as described earlier by Tourna et al. (2011). All necessary materials were rinsed with 1 % HCl and washed at least 3 times with MilliQ water. FWM (pH 7.5 (KOH)) contained 17 mM NaCl, 3 mM MgCl2 × 2 H2O, 680 µM CaCl2 × 2 H2O, 1.47 mM KH2PO4 and 6.71 mM KCI. After autoclaving, successively 1 mL non-chelated trace element mixture (101 mM HCl, 488 µM H3BO3, 508 µM MnCl2 × 4 H2O, 803 µM CoCl2 × 6 H2O, 101 µM NiCl2 × 6 H2O, 12 µM CuCl2 × 2 H2O, 503 µM ZnSO4 × 7 H2O and 150 µM Na2MoO4 × 2 H2O), 1 mL Fe-NaEDTA (7.5 mM), 1 mL vitamin solution (20 mg/L biotin, 20 mg/L folic acid, 100 mg/L pyridoxine-HCl, 50 mg/L thiamine-HCl, 50 mg/L riboflavin, 50 mg/L nicotinic acid, 50 mg/L DL-pantothenic acid, 50 mg/L P-aminobenzoic acid, 2 g/L choline chloride and 10 mg/L vitamin B12), 2 mL NaHCO3 (1 M), 2 mL kanamycin (100 mg/mL), 2 mL carbenicillin (100 mg/mL), 3 mL NH4Cl (1 M), 10 mL HEPES buffer (1 M, pH 7.6) and 1 mL Na-pyruvate (0.1 M) were added aseptically. All stock-solutions were filter-sterilized, except the autoclaved non-chelated trace element mixture. Cultures were incubated aerobically at 42° C. without shaking in sterile 250-mL Erlenmeyer flasks or 30-mL cultivation tubes (Product number: 216-1290, Quickstart universal containers STERILIN®, VWR) filled with either 100 or 20 mL FWM and sealed with tape (Micropore™ Surgical Tape 1530-1, 3M™). Late-log phase cultures ([NO2-] ≥ 1 mM) were subcultivated by dilution (1:400) in fresh FWM.
7-day old 100 mL cultures grown in 250-mL Erlenmeyer flasks with a [NO2-] ≥ 1 mM were 5 times overconcentrated in fresh FWM by centrifugation (4000 rpm, 15 min, 5° C.) in 50 mL centrifuge tubes (Cat. No. 430829, CentriStar™ Conical Centrifuge Tubes, Corning®). Per batch, all the cultures were pooled in one sterile Schott bottle. Subsequently, 200 µl/well was dispensed at low pipetting speed in transparent flat bottom 96-well plates (Cat. No. 353072, Falcon® 96 Well Clear Microplate, Corning®) using 150 µl wide-bore tips (two steps of 100 µl) on a Tecan robot (Freedom EVO®, Tecan). 0.5 µl of 99.99 % DMSO (negative control - final concentration 0.25%) and 0.5 µl of 0.04 M PTIO (2-phenyl-4,4,5,5-tetramethylimidazoline-1-oxyl 3-oxide, positive control - final concentration 100 µM) were added manually to the first and last column respectively. Finally, 0.5 µl of candidate nitrification inhibitors (1 mM stock solutions in 99.99% DMSO - final concentration 2.5 µM) were added to the central wells using a pin tool on a Tecan robot (Freedom EVO®, Tecan). In between additions, the pins were washed in sequence with 99.5% DMSO, MilliQ water and 100% ethanol and air-dried. All plates were sealed with tape (Micropore™ Surgical Tape 1530-1, 3M™), stacked per 4 on top of a 96-well plate filled with 100 µl MilliQ per well and covered with aluminum foil. Position effects of the stacks within the incubator were considered. Plates were incubated at 42° C. without shaking. 24 h later, NO2— was measured spectrophotometrically at 540 nm (EnVision, Perkin Elmer®). […]

[2] = tested on: ABIL (ammonia-binding liquid inoculum), nitrifying microbial enrichment containing both AOA and AOB; assay: Nitrification inhibition assay on ABIL (ammonium consumption); format: cell-based; details: 10 µM compound; structural variants outside formula (I); read-out: Relative nitrification (%) by ABIL treated with 10 µM compound

Row | Compound | activity at 2.5 µM [1] [%] | activity at 10 µM [2] [%]
1 | CCN(CC1CCOC1)C(=O)c1cc2cnn(C(C)C)c2nc1C (stereo not drawn) [Example 41] | 100 | 98
2 | CC(C)n1ncc2cc(C(=O)NCc3ccccc3OC(F)(F)F)cnc21 [Example 42] | 98 | 98
3 | CNS(=O)(=O)c1cccc(C(=O)Nc2cnc3c(c2)c(C)nn3C)c1 [Example 43] | 100 | 98
4 | Cc1nc2cc(NC(=O)c3cnc4c(cnn4C(C)C)c3)ccc2o1 [Example 44] | 100 | 99
5 | Cc1cc(C)c2c(OCC(=O)N3CCOCC3(C)C)nn(C)c2n1 [Example 45] | 98 | 99
6 | Cc1nc2c(c(C)nn2C)c(C)c1CCC(=O)N1CC(C)OC(C)C1 (stereo not drawn) [Example 46] | 90 | 99
7 | Cc1nc2c(c(C)nn2C)c(C)c1CCC(=O)NCCc1ccc2c(c1)OCO2 [Example 47] | 100 | 100
8 | Cc1nc2c(cc1C(=O)NC(C)C1CCCO1)c(C)nn2C (stereo not drawn) [Example 48] | 99 | 100
9 | COCCC1(C(=O)Nc2cnc3[nH]nc(C)c3c2)CCCC1 [Example 49] | 100 | 100
10 | CC(C)n1ncc2cc(NC(=O)C3(C)CC3(Cl)Cl)cnc21 (stereo not drawn) [Example 50] | 92 | 100
11 | CC(CCc1ccco1)NC(=O)c1cnc2c(cnn2Cc2ccccc2)c1 (stereo not drawn) [Example 51] | 91 | 100
12 | CC(NC(=O)c1cnc2c(cnn2C(C)C)c1)C1CCCO1 (stereo not drawn) [Example 52] | 100 | 100
13 | CC(C)n1ncc2cc(NC(=O)C3=CN4CCS(=O)(=O)N=C4C=C3)cnc21 [Example 53] | 95 | 100
14 | CCC(CC)CN(CC)C(=O)c1cnc2c(c1)c(C)nn2C [Example 54] | 96 | 100
15 | Cc1nnc(NC(=O)c2cnc3c(cnn3C(C)C)c2)s1 [Example 55] | 100 | 100
16 | CC(C)n1ncc2cc(NC(=O)Cc3ccc(F)cc3)cnc21 [Example 56] | 100 | 100
17 | Cc1nc2c(c(C)nn2C)c(C)c1CCC(=O)NC(C)C1CCCO1 (stereo not drawn) [Example 57] | 97 | 100
18 | CCC1CN(C(=O)CCc2c(C)nc3c(c(C)nn3C)c2C)CCO1 (stereo not drawn) [Example 58] | 98 | 100
19 | Cc1nn(C)c2ncc(CNCc3ccc(N4CCCC4)nc3)cc12 [Example 59] | 92 | 100
20 | Cc1nc2c(c(C)nn2C)c(C)c1CCC(=O)N1CCOCC1 [Example 60] | 100 | 100
21 | CC(C)n1ncc2cc(C(=O)O)cnc21 [Example 61] | 100 | 100

Row | Compound | activity at 2.5 µM [1] [%] | activity at 10 µM [2] [%]
22 | Cc1nc2c(cnn2C(C)C)cc1C(=O)NC(C)c1ccccc1Br (stereo not drawn) [Example 62] | 100 | 100
23 | Cc1nc2c(cnn2C(C)C)c(C)c1CCC(=O)NC12CC3CC(CC(C3)C1)C2 [Example 63] | 100 | 100
24 | CCC(C)(CC)NC(=O)COc1nn(C)c2nc(C)cc(C)c12 [Example 64] | 100 | 100
25 | CC(C)n1ncc2cc(NC(=O)CCc3cc4ccccc4o3)cnc21 [Example 65] | 100 | 100
26 | Cc1cc(-c2nc(-c3ccc4c(c3)OCO4)no2)c2c(C)nn(C)c2n1 [Example 66] | 99 | 100
27 | Cc1cc(C)c2c(OCC(=O)N(CC(F)F)C3CC3)nn(C)c2n1 [Example 67] | 100 | 100
28 | CC(C)n1ncc2cc(NC(=O)CCC(=O)c3ccccc3)cnc21 [Example 68] | 100 | 100
29 | CNC(=O)C1(C(=O)Nc2cnc3c(cnn3C(C)C)c2)CC1 [Example 69] | 100 | 100
30 | Cc1n[nH]c2ncc(CNCc3ccc4c(c3)OCO4)cc12 [Example 70] | 100 | 100
31 | Cc1cccc(C)c1OCC(=O)Nc1cnc2c(cnn2C(C)C)c1 [Example 71] | 94 | 100
32 | Cc1nn(-c2ccc(F)cc2)c2nc3c(cc12)C(=O)CC(C)(C)C3 [Example 72] | 99 | 100
33 | CCOc1cc(C(=O)Nc2cnc3c(cnn3C(C)C)c2)c([N+](=O)[O-])cc1OC [Example 73] | 93 | 100
34 | Cc1nc2c(cnn2C(C)C)cc1C(=O)N1CCc2ccccc21 [Example 74] | 100 | 100
35 | Cc1nc2c(c(C)nn2C)c(C)c1CCC(=O)N1CCOCC1C (stereo not drawn) [Example 75] | 100 | 100
36 | Cc1nn(C)c2ncc(NC(=O)CCC3CCCO3)cc12 (stereo not drawn) [Example 76] | 100 | 100
37 | Cc1nc2c(c(C)nn2C)c(C)c1CCC(=O)Nc1ccccc1C(=O)O [Example 77] | 100 | 100
38 | Cc1nc2c(cnn2C(C)C)cc1C(=O)N1CCSCC1 [Example 78] | 100 | 100
39 | COCCN(C(=O)c1cnc2c(cnn2C(C)C)c1)C1CC1 [Example 79] | 97 | 100
40 | Cc1nc2c(c(C)nn2C)c(C)c1CCC(=O)NCC1CCCO1 (stereo not drawn) [Example 80] | 100 | 100
41 | CC(C)n1ncc2cc(C(=O)NCc3ccccc3S(=O)(=O)N3CCCCC3)cnc21 [Example 81] | 100 | 100
42 | Cc1nn(C)c2ncc(CN3CCNCC3C)cc12 (stereo not drawn) [Example 82] | 96 | 100
